In US10493045B2, “Method for treating alcohol dependence or alcohol abuse” (priority 2016, dated 2019):
Values joined by “and” are separate entries in the source; they are usually repeats but may differ in a detail not shown here. Identical values can stand only once.

Legend:
[1] = tested on: opioid-dependent patients undergoing methadone maintenance treatment; conditions: add-on memantine; cited from earlier work
[2] = tested on: BD-II patients with comorbid alcohol dependence; test: 12-week open-label low-dose add-on memantine treatment: clinical severity (HDRS, YMRS) and alcohol use; assay type: in vivo, human
Source text: BD-II patients with comorbid alcohol dependence were recruited from outpatient and inpatient settings in Taiwan. All patients were initially evaluated by an attending psychiatrist and then given a structural interview by a clinical psychologist to determine according to the Diagnostic and Statistical Manual of Mental Disorders, Fourth Edition, Text Revision (DSM-IV-TR), and the Chinese version of the Modified Schedule of Affective Disorder and Schizophrenia-Life Time (SADS-L) was used, which had good inter-rater reliability. Patients suffering from major mental illnesses other than BD-II and alcohol dependence and patients who had taken memantine within 1 week before the study began were excluded.
(§1) Eligible patients were given low-dose (less than 5 mg/day) add-on memantine (5 mg/day) after an initial screening, with open-label valproic acid (VPA) treatment (500 or 1000 mg/day or […] in plasma) which had begun when they joined the study. The severity of mood symptoms was assessed by using the Hamilton Depression Rating Scale (HDRS) and the Young Mania Rating Scale (YMRS). Only patients with moderate mood symptoms (HDRS≥18 or YMRS≥14) were recruited. The exact amount of alcohol used by each patient was assessed by using the Chinese version of the Modified SADS-L. Symptom severity and alcohol use were assessed at baseline, and treatment responses were measured on day 7 of weeks 1, 2, 4, 8, and 12. Concomitant benzodiazepine medications (lorazepam<8 mg and chlordiazepoxide<240 mg) were used for nighttime sedation and withdrawal symptoms during the study. Up to 20 mg/day of fluoxetine was permitted for associated depressive symptoms, and 1-3 mg of risperidone was used for hypomanic symptoms.
(§2) The intent to-treat (ITT) analysis set included all patients who had taken at least one dose of the studied drug, and had undergone one baseline assessment and at least one post-baseline assessment. All outcome variables—HDRS, YMRS, cytokine levels, plasma BDNF levels, and metabolic parameters—in the ITT set were analyzed. Missing data were filled in by using the last observation carried forward (LOCF) method.
(§3) The overall within-group changes of each outcome over 12 weeks were analyzed by using generalized estimating equations (GEEs). The present invention ran 10 models and each outcome was deemed as a dependent variable. In each model, treatment duration, gender, and age were considered as independent variables. The covariance structure used was the autoregressive (AR [1]) model. The significance of change of each outcome over 12-week follow-up was represented by the variable “treatment duration.” Linear regression analysis was used to analyze correlations between changes in alcohol use and changes in cytokine and BDNF levels in 12 weeks. Changes in alcohol use were dependent variables, and changes in HDRS and YMRS scores, and in plasma cytokine and BDNF levels (controlled for gender, age, and baseline clinical severity) were independent variables. SPSS 22.0 for Windows was used for all statistical computations. Significance was set at p<0.05.

[3] = tested on: plasma TNF-α, CRP, TGF-β1, IL-8, IL-10, and BDNF; test: Plasma cytokine and BDNF levels by ELISA during 12-week add-on memantine treatment; assay type: in vivo, human
Experimental: as §1
Ten milliliters of whole blood was withdrawn from the antecubital vein of each patient when clinical severity was assessed: at baseline, and on day 7 of weeks 1, 2, 4, 8, and 12. Plasma, which was isolated from the whole blood after it had been centrifuged at 3000 g for 15 min at 4° C., was immediately stored at −80° C. The enzyme-linked immunosorbent assay was used to quantify the cytokine levels by ELISA reader (SpectraMax® M2e, Molecular Devices, USA). Sample processing and data analysis were done according to the manufacturer's instructions. The immunological parameters—plasma TNF-α, CRP, TGF-β1, IL-8, IL-10, and BDNF—were analyzed.
as §2, §3

[4] = tested on: alcohol use; conditions: up to 40 mg/day of memantine; cited from earlier work
[5] = Plasma memantine concentration in treated patients; assay type: in vivo, human; conditions: patients given 5 mg/day of memantine
[6] = tested on: morphine-induced conditioned-place-preference behavior; conditions: rats; low-dose 0.02 mg/kg; cited from earlier work
[7] = tested on: post-dependent (PD) rats; conditions: injection 25 mg/kg; cited from earlier work
[8] = target: NMDA receptors; conditions: read-out: 50% inhibition concentration [IC50], block of NMDA receptors; cited from earlier work

In the case of `CC12CC3CC(C)(C1)CC(N)(C3)C2` [memantine], the “Plasma tumor necrosis factor-α (TNF-α) levels” value [1] is given as “significantly downregulates”, the Required methadone dose [1] is given as “reduces” and the “Transforming growth factor-β1 (TGF-β1) levels” value [1] is given as “upregulates”. For the same compound, the “Patients who stopped drinking during the first week of memantine treatment” value ([2]; 15 patients of 45, first week) was 33.3%, the “Patients who reduced their alcohol use to 0 unit after 12 weeks” value ([2]; 22/26 patients, after 12 weeks) was 84.6% and the “HDRS, mean at endpoint” value ([2]; BD-II patients with comorbid alcohol dependence, add-on memantine less than 5 mg/day plus VPA, endpoint 12 weeks, n = 26, baseline mean 14.4 (n = 45)) was 9.4. The “Reduction of alcohol use after 12 weeks of treatment, all of the patients” value ([2]; after 12 weeks) was greater than 50%, the “YMRS, mean at endpoint” value ([2]; endpoint 12 weeks, n = 26, baseline mean 13.8 (n = 45)) was 9.4 and the “Alcohol use (unit), mean at endpoint” value ([2]; endpoint 12 weeks, n = 26, baseline mean 73.9 (n = 45)) was 11.8 unit. For the same compound, the “IL-10, mean at endpoint” value ([3]; endpoint 12 weeks, n = 26, baseline mean 2.09) was 1.92, the “TNF-α, mean at endpoint” value ([3]; endpoint 12 weeks, n = 26, baseline mean 2.64) was 2.66 and the “IL-8, mean at endpoint” value ([3]; endpoint 12 weeks, n = 26, baseline mean 17.64) was 10.22. For the same compound, the “CRP, mean at endpoint” value ([3]; endpoint 12 weeks, n = 26, baseline mean 2960.48) was 2382.29, the “BDNF, mean at endpoint” value ([3]; endpoint 12 weeks, n = 26, baseline mean 16196.64) was 18910.46 and the “TGF-β1, mean at endpoint” value ([3]; endpoint 12 weeks, n = 26, baseline mean 30884.32) was 27653.85. The “Change in TGF-β1 over 12 weeks of treatment” value ([3]; within-group change, GEE, p 0.080) was −3586.37, the “Change in IL-10 over 12 weeks of treatment” value ([3]; within-group change, GEE, p 0.605) was −0.182 and the “Change in TNF-α over 12 weeks of treatment” value ([3]; within-group change, GEE, p 0.89) was 0.04. The “Alcohol use as compared to placebo” value [4] was “not significantly reduced”, the Plasma memantine concentrations [5] was 10-50 ng/ml and 0.05-0.2 μM and the Morphine-induced conditioned-place-preference behavior [6] was “abolishes”. The “Alcohol drinking during acute withdrawal” value [7] was “reduced”, the “Relapses of alcohol dependence after protracted abstinence” value [7] was “did not reduce” and the IC50 [8] was 2 to 3 µM.
